≈ marks a conversion by molar mass, not a printed value. Where “and” joins values, the source holds several entries; their conditions need not be identical. Equal entries are not always repeated. Where two headings read alike, the source gives them in different places.

Data set [1] relates to various fungal species.
The subject of data set [2] is C. elegans. Nature of the data set: C. elegans agar (plate) assay. It counts as in vivo. To be noted: Caenorhabditis elegans, read-out: Plate EC50.
Data set [3] relates to tomato plants. The conditions noted are these: in vivo.
The test system of data set [4] is Botrytis cinerea. Nature of the data set: microbe, parasite or virus in culture. It counts as cell-based. To be noted: read-out: growth inhibition.
In data set [5] the test system is Beet army worm.
Data set [6] relates to root knot nematode (Meloidogyne incognita). To be noted: in vivo.
Data set [7] relates to Alternaria solani. Nature of the data set: microbe, parasite or virus in culture. It counts as cell-based. The conditions noted are these: read-out: growth inhibition.
The test system of data set [8] is Meloidogyne incognita J2 larvae. Nature of the data set: Miniaturized greenhouse assay on cucumber seedlings, root gall rating. It counts as in vivo.
The test system of data set [9] is C. elegans. Nature of the data set: C. elegans liquid (well) assay. It counts as in vivo. To be noted: Caenorhabditis elegans, read-out: Well EC50.
Data set [10] relates to Sclerotinia sclerotiorum. In words: microbe, parasite or virus in culture. It counts as cell-based. To be noted: read-out: growth inhibition.
Data set [11] relates to Corn ear worm.
Data set [12] has as its system C. elegans (strain N2). In words: C. elegans contact assay (NGM-agar, 24-well). It counts as in vivo. To be noted: Caenorhabditis elegans, 96 h.
The test system of data set [13] is Fusarium graminearum. In words: microbe, parasite or virus in culture. To be noted: read-out: growth inhibition. It counts as cell-based.
In data set [14] the test system is several arthropods. To be noted: in vivo.
The subject of data set [15] is cucumber seedling. Nature of the data set: Miniaturized greenhouse assay, phytotoxicity rating. To be noted: 200 ppm.

In the case of `O=S(=O)(F)CCNc1ccc(N=Nc2ccccc2)cc1` [Compound 3746, 2-(4-phenylazo-phenylamino)-ethanesulfonyl fluoride], the “toxicity to fungal species” value in data set [1] is given as “Low to moderate toxicity”. For the same compound, the EC50 in [2] is 1.6 µg/mL (≈ 5.21 µM); in [9], 6.3 to 12.5 µg/mL (≈ 20.5 to 40.7 µM); in data set [12], 2000 nM. Also, in data set [3], the “phytotoxicity (root weights)” value is on record as “no phytoxicity”. Also, the inhibition at 1.63 µM in data set [4] (1.63 μM), in data set [7] (1.63 μM) and in [13] (1.63 μM) was < 25% throughout. For the same compound, the inhibition at 16.3 µM was > 75% in data set [4] (16.3 μM), > 75% in data set [7] (16.3 μM), < 25% in data set [10] (16.3 μM) and > 75% in data set [13] (16.3 μM). For the same compound, the “Result (arthropod toxicity)” value in data set [5] (2500 μM) is “No effect”; in [5] (25000 μM) it was “Lethal”; in data set [11] (2500 μM), “Non-effect”; in data set [11] (25000 μM), “Lethal”. Besides, the “nematode control (gall ratings)” value in data set [6] was “nematode control approaching that of the commercial nematicides fenamiphos (Nemacur)”. Besides, in data set [8] (40 ppm), the “Gall 40 (gall rating)” value was 1.33 and 2.00. Also, in data set [8] (200 ppm), the “Gall 200 (gall rating)” value worked out at 0.00. In addition, the inhibition at 163 µM in data set [10] (163 μM) is > 75%. In addition, the toxicity to arthropods entry in [14] is listed as “not toxic”. In addition, the “Ptox 200 (phytotoxicity rating)” value in [15] was 3.00 and 2.67.

What is called EC50 is the concentration giving half of the maximal effect. The term inhibition denotes the change of the read-out against control, counted positive when it falls.

The values above are taken from patent US20050203067A1, “Pesticidal compositions and methods” (priority 2003, published 2005).
